Legend:
Format in all cases: cell-based
[1] = target: T1, hTLR8 (human Toll-like receptor 8) (Homo sapiens, UniProt Q9NR97); test: hTLR8 cell assay (HEK-Blue hTLR8 reporter cells); details: 24 hours, OD 650 nm
T1 construct: host or cells: HEK-Blue hTLR8 (HEK293-derived reporter cells)
T1 sequence (Q9NR97 27-1041): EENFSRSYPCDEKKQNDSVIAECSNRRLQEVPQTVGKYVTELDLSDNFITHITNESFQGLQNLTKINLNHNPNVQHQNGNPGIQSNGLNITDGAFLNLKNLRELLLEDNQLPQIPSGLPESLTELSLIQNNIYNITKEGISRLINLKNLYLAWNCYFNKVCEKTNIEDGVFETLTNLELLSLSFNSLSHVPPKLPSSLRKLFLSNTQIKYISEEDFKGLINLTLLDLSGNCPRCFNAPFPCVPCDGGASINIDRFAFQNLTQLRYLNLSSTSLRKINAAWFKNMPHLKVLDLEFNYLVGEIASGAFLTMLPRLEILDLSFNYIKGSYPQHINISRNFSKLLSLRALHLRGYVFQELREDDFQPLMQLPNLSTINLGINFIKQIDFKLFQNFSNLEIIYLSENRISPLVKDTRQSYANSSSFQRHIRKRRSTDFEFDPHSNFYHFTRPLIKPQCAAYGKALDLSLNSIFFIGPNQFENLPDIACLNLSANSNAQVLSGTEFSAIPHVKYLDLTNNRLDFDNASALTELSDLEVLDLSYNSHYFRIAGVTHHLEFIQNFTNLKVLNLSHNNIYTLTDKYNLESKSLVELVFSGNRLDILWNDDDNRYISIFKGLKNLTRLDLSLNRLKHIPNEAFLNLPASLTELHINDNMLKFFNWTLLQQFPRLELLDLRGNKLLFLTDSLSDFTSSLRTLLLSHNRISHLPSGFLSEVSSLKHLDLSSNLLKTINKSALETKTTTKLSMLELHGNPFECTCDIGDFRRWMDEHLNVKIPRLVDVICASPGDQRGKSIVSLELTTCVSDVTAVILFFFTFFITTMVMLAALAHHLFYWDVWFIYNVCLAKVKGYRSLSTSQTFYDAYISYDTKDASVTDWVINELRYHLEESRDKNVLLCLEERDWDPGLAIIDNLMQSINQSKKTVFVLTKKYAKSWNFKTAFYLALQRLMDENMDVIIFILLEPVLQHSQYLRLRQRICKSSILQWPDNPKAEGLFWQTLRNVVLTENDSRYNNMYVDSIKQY
Method in brief: (§1)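 HEK-Blue reporter cells in HEK-Blue Detection medium (50000 cells/mL) were exposed to test compounds for 24 hours at 37° C, 5% CO2. Agonism was read from supernatant incubated 1 hour at 37° C with QUANTI-Blue, measured as optical density at 650 nm.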

[2] = tested on: human PBMC (human peripheral blood mononuclear cells); test: PBMC screening assay: induction of TNF-α production; details: human PBMC, 24 hours, TNF-α by ELISA; class symbols; read-out: EC50 (μM) TNF-α (hPBMC)
Method in brief: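 Human PBMC were rested for 24 h, then treated in duplicate with compound at 2.54 nM to 50 μM for 24 h at 37 °C. Secreted TNF-α in the cleared supernatant was quantified by ELISA, read at OD 450 nm.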

[3] = target: T2, hTLR7 (human Toll-like receptor 7) (Homo sapiens, UniProt Q9NYK1); test: hTLR7 cell assay (HEK-Blue hTLR7 reporter cells); details: 24 hours, OD 650 nm
T2 construct: host or cells: HEK-Blue hTLR7 (HEK293-derived reporter cells)
T2 sequence (Q9NYK1 27-1049): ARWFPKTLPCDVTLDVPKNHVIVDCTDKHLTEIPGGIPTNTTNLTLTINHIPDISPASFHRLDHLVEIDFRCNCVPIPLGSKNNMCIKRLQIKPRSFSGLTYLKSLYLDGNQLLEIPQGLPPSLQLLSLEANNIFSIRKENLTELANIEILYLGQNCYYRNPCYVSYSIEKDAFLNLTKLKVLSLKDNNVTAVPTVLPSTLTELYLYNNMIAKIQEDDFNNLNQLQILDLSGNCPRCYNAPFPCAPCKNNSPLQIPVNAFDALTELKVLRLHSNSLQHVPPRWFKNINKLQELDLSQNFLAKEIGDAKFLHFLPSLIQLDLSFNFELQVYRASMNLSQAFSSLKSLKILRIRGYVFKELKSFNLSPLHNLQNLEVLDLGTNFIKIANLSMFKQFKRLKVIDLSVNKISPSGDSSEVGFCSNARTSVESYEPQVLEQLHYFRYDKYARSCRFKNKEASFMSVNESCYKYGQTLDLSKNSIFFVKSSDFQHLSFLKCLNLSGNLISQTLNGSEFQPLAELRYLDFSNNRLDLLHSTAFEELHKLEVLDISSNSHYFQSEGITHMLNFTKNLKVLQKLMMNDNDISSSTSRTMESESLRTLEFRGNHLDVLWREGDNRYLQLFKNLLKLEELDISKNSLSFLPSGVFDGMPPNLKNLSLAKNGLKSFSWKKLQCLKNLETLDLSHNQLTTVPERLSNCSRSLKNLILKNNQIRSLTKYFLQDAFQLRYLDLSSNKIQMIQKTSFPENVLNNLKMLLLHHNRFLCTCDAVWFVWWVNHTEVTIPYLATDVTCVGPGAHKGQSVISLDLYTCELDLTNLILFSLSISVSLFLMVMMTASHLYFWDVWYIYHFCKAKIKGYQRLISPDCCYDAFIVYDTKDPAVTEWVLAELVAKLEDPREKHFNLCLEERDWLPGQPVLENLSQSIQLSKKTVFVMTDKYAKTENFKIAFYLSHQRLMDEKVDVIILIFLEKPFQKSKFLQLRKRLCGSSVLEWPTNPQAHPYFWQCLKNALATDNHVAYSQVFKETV
Method in brief: as §1

Row | Structure (SMILES) | EC50 [1] [µM] | EC50 [2] [µM] | EC50 [3] [µM]
1 | CCCCc1nc2c(N)nc3cc(Cc4ccc(CN)s4)ccc3c2n1CC(C)(C)O [Compound 69, 1-(4-amino-7-((5-(aminomethyl)thiophen-2-yl)methyl)-2-butyl-1H-imidazo[4,5-c]quinolin-1-yl)-2-methylpropan-2-ol] | < 5 | < 0.64 | < 1
2 | CCCCc1nc2c(N)nc3cc(Cc4ccc(C(C)(C)CN)cc4)ccc3c2n1CC(C)(C)O [Compound 70, 1-(4-amino-7-(4-(1-amino-2-methylpropan-2-yl)benzyl)-2-butyl-1H-imidazo[4,5-c]quinolin-1-yl)-2-methylpropan-2-ol] | < 5 | < 0.64 | < 1
3 | CCCCc1nc2c(N)nc3cc(Cc4ccccc4CN)ccc3c2n1CC(C)(C)O [Compound 71, 1-(4-amino-7-(2-(aminomethyl)benzyl)-2-butyl-1H-imidazo[4,5-c]quinolin-1-yl)-2-methylpropan-2-ol] | < 5 | > 0.64 | 1 to 10
4 | CCOCc1nc2c(N)nc3cc(Cc4ccc(CN)s4)ccc3c2n1CC(C)(C)O [Compound 147, 1-(4-amino-7-((5-(aminomethyl)thiophen-2-yl)methyl)-2-(ethoxymethyl)-1H-imidazo[4,5-c]quinolin-1-yl)-2-methylpropan-2-ol] | < 5 | < 0.64 | < 1
5 | CCOCc1nc2c(N)nc3cc(Cc4cc(CN)ccc4F)ccc3c2n1CC(C)(C)O [Compound 148, 1-(4-amino-7-(5-(aminomethyl)-2-fluorobenzyl)-2-(ethoxymethyl)-1H-imidazo[4,5-c]quinolin-1-yl)-2-methylpropan-2-ol] | < 5 | < 0.64 | < 1
6 | CCOCc1nc2c(N)nc3cc(Cc4ccc(F)c(CN)c4)ccc3c2n1CC(C)(C)O [Compound 149] | < 5 | < 0.64 | < 1
7 | CCOCc1nc2c(N)nc3cc(Cc4cccc(CNC(=O)CN)c4)ccc3c2n1CC(C)(C)O [Compound 150, 2-amino-N-(3-((4-amino-2-(ethoxymethyl)-1-(2-hydroxy-2-methylpropyl)-1H-imidazo[4,5-c]quinolin-7-yl)methyl)benzyl)acetamide] | < 5 | < 0.64 | 1 to 10
8 | CCOCc1nc2c(N)nc3cc(Cc4cccc(C(=O)NCCN)c4)ccc3c2n1CC(C)(C)O [Compound 151, 3-((4-amino-2-(ethoxymethyl)-1-(2-hydroxy-2-methylpropyl)-1H-imidazo[4,5-c]quinolin-7-yl)methyl)-N-(2-aminoethyl)benzamide] | < 5 | < 0.64 | 1 to 10
9 | CCOCc1nc2c(N)nc3cc(Cc4ccc5c(c4)CCNC5)ccc3c2n1CC(C)(C)O [Compound 152, 1-(4-amino-2-(ethoxymethyl)-7-((1,2,3,4-tetrahydroisoquinolin-6-yl)methyl)-1H-imidazo[4,5-c]quinolin-1-yl)-2-methylpropan-2-ol] | < 5 | < 0.64 | < 1
10 | CCOCc1nc2c(N)nc3cc(Cc4cccc(N5CCNCC5)c4)ccc3c2n1CC(C)(C)O [Compound 153, 1-(4-amino-2-(ethoxymethyl)-7-(3-(piperazin-1-yl)benzyl)-1H-imidazo[4,5-c]quinolin-1-yl)-2-methylpropan-2-ol] | < 5 | < 0.64 | < 1

Reference: patent US20250325687A1, “CONJUGATE COMPRISING TOLL-LIKE RECEPTOR AGONIST” (MABSOFT THERAPEUTICS (SHANGHAI) CO., LTD., priority 2022, published 2025)
